Experimental data reported in US12435081B2, “Methods of treatment using BCN057 and BCN512” (BCN Biosciences L.L.C., priority 2019, dated 2025).

Experiments:
[1] = system: pancreatic cancer cell lines; test: Imaging of pancreatic cancer cell lines over time; format: cell-based; settings: 10 uM, time 0 to 240 minutes
Procedure: FIG. 3 depicts the Effects of 10 uM BCN057 on the viability of pancreatic cancer cell lines. The images show pancreatic cancer cell lines at time 0 (FIG. 3A), 15 minutes (FIG. 3B), 30 minutes (FIG. 3C), 60 minutes (FIG. 3D), 120 minutes (FIG. 3E) and 240 minutes (FIG. 3F).

[2] = system: pancreatic cancer cell lines; test: ATP Lite viability assay of pancreatic cancer cell lines; format: cell-based
Procedure: FIG. 1 depicts the Effects of 5-FU and BCN057 on the viability of pancreatic cancer cell lines. The Effects of 5-FU and BCN057 on the viability of pancreatic cancer cell lines were assessed by ATP Lite assay (Perkin Elmer). 50 uM 5Fu (5Fu, n=5), 50 uM 5Fu and 2, 5, 10, and 20 uM BCN057 (5Fu+BCN057, n=5) or 2, 5, 10.20 uM CN057 (CN057, n=5). Control cells (V, n=5) The Percent Phosphorylation was calculated by dividing the average value for each condition by the average value of the control cells (V) at each time point.
FIGS. 4A and 4B show Compound H, Compound K and the results of a Viability Assay on Pancreatic Cells. […] The numeric data is also included (FIG. 4B). FIG. 5A depicts Compound H and FIG. 5B depicts Compound K.

[3] = Solubility in aqueous formulations; format: physicochemical; settings: 30 wt % Captisol (SBE-beta-CD) and 100 mM MSA, at up to pH 4.1 or higher
[4] = system: Panc-1 cells; test: RealTime-Glo Annexin V Apoptosis and Necrosis Assay; format: cell-based
Procedure: FIGS. 2A and 2B depict the Annexin V Apoptosis and Necrosis Assay in Panc-1 cells. Panc-1 cells were exposed to serial dilutions of 057 in the presence or absence of the RealTime-Glo™ Annexin V Apoptosis and Necrosis Assay Reagent. The plate was incubated at 37° C./5% CO2 and luminescence (Annexin V binding) was measured over a period of 6 hours.

[5] = system: Wnt activity; test: TOPFLASH assay of exosomes purified from human lung organoid conditioned medium; format: cell-based; settings: human lung organoids irradiated (4-6 Gy), treated with BCN512, compared to irradiated control
Procedure: For the role of BCN512 in human pulmonary epithelium derived Wnt release, exosome were purified from organoid conditioned medium. Purified exosomes were tested for Wnt activity by TOPFLASH assay.

[6] = system: HEK293 cells having a TCF/LEF luciferase reporter construct; test: TCF/LEF luciferase reporter assay of canonical WNT activity; format: cell-based; settings: after 24 hours, compared with vehicle treated cells
Procedure: These studies and observations are consistent with previous observations, specifically that WNT-catenin signaling promotes the self-renewal and differentiation of LGR5+ epithelial (lung, oral, intestinal) stem cells. Canonical WNT activity was measured in HEK293 cells having a TCF/LEF luciferase reporter construct. Luciferase activity was measured after 24 hours.

[7] = system: TGFβ; test: Histopathology of lung and cardiac muscle sections stained for TGFβ after thoracic radiation; format: in vivo, C57M Male mice
Procedure: Transforming growth factor β (TGF-β) is a central mediator of fibrogenesis. […] TGFβ is reduced when treated for the first 20 days post radiation with BCN512 at 5 mg/kg. Images D-F are cardiac muscle stains under the identical parameters above from the same animals. […] We expect the same results using non-radiation induced stimuli including LPS and cytotoxic drugs.

[8] = system: lung fibrosis; test: Fibrotic lesions in lung sections; format: in vivo; settings: BCN512 treated (20×512) vs. vehicle (20×V), C57BL mice, day 180, five mice per group
From the text: Lesions were defined by local density with five mice per group assessed at day 180. This effect is observed with non-radiation induced stimuli such as LPS and cytotoxic drugs.

[9] = system: Wnt activity; test: TOPFLASH assay of exosomes purified from lung organoid conditioned medium; format: cell-based, mice; settings: irradiated organoids treated with BCN512 compared to irradiated control
Procedure: If BCN512 and related structures inhibit the activity of SRFPs, BCN512 can allow more free Wnt ligand from epithelial cells. Free Wnt ligands are secreted and transported through exosomes. To determine the role of BCN512 in pulmonary epithelium derived Wnt release, exosomes were purified from organoid conditioned medium. Purified exosomes were tested for Wnt activity by the TOPFLASH assay.
Wnt activity has also been examined in exosomes derived from human lung organoids.

| Compound | morphological changes and apoptosis [1] | antineoplastic activity / proliferation of the tumor cell line [2] | solubility [3] | fluorescence (necrosis) ([4]; over the same 6 hour period) | apoptosis (luminescence, Annexin V binding) ([4]; serial dilutions, measured over 6 hours) | exosomal Wnt activity [5] | luciferase activity [6] | TGFβ staining in lung sections ([7]; 14Gy thoracic radiation, 5 mg/kg for the first 20 days post radiation, assessed on day 90) | TGFβ staining with non-radiation induced stimuli ([7]; non-radiation induced stimuli including LPS and cytotoxic drugs) | TGFβ staining in cardiac muscle ([7]; same animals and parameters: 14Gy thoracic radiation, 5 mg/kg for first 20 days, day 90) | lung fibrosis (number of fibrotic lesions in lung sections) [8] | exosomal Wnt activity [9] |
| --- | --- | --- | --- | --- | --- | --- | --- | --- | --- | --- | --- | --- |
| COc1ccc2cc(-c3nc4ccc(C)cn4c3NCc3ccco3)c(=O)[nH]c2c1 [BCN057, (3-[(Furan-2-ylmethyl)-amino]-2-(7-methoxy-2-oxo-1,2-dihydro-quinolin-3-yl)-6-methyl-imidazo[1,2-a]pyridin-1-ium)] | particularly apparent at 240 minutes | inhibits the proliferation of the tumor cell line | excellent solubility | No change | increase with increasing concentrations |  |  |  |  |  |  |  |
| O=[N+]([O-])c1ccc([S@SP3](=O)(=O)N2CCN(c3ccccc3)CC2)cc1 [BCN512, 1-[(4-nitrobenezene)sulfonyl]-4-phenyl piperazine] |  |  |  |  |  | several folds high | significantly increased | reduced | same results | significant reduction | significant reduction | several folds higher |
